Reference: ChEMBL document CHEMBL1201862, “PubChem BioAssay data set” (2004)
Blank lines part the entries; values can stand above or below the molecule they belong to. Activity calls are given as the source filed them.

How the values were obtained:
[1] = target: T1, Carboxy-terminal domain RNA polymerase II polypeptide A small phosphatase 1 (Homo sapiens, UniProt Q9GZU7); experiment: CTDSP1 inhibitors, concentration-response, biochemical, absorbance readout, ultra-high-throughput screen actives (AID 540297); type: functional
T1 sequence (Q9GZU7 whole entry): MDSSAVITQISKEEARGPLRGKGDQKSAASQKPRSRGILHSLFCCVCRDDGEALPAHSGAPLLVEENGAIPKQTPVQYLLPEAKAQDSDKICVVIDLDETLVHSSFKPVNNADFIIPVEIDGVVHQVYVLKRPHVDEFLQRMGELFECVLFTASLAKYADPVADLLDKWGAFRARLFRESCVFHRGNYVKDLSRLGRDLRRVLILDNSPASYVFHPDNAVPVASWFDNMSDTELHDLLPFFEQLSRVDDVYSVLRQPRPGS

[2] = target: T2, Corticotropin-releasing factor receptor 2/Corticotropin-releasing factor-binding protein (Homo sapiens, UniProt P24387+Q13324); experiment: Dose Response confirmation of uHTS hits for small molecule antagonists of the CRF-binding protein and CRF-R2 receptor complex.; type: functional; settings: read-out: IC50_Mean
T2 sequence (Q13324 whole entry): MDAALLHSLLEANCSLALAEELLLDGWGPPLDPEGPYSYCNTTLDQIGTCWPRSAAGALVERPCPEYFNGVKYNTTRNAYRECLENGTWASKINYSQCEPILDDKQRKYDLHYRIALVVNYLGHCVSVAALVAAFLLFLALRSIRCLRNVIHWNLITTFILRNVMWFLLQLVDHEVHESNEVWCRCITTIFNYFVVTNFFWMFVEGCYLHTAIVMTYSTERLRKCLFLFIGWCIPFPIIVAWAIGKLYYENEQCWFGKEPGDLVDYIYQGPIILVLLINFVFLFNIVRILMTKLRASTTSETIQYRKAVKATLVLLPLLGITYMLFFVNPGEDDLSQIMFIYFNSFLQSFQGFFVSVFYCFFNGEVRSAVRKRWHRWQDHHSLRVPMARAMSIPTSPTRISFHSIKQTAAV
T2 sequence (P24387 whole entry): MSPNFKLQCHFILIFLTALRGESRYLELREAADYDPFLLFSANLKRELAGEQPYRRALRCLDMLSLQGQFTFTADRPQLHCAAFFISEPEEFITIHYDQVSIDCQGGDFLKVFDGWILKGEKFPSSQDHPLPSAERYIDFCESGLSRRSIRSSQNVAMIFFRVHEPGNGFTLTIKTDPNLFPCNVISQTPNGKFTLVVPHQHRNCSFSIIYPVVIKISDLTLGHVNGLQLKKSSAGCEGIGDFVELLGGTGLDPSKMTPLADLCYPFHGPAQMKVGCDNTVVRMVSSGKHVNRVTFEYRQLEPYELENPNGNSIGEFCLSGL

[3] = target: T2, Corticotropin-releasing factor receptor 2/Corticotropin-releasing factor-binding protein; experiment: activators of CRF receptor 2 with binding protein – uHTS hits, confirmation (AID 602473); type: functional; settings: read-out: EC50_Mean
[4] = HPDE-C7 pancreatic duct cell viability loss – fluorescence, HTS (AID 430); type: functional, cell-based; settings: Homo sapiens
[5] = viability loss of HPDE-C7K cells – cell-based, fluorescence, HTS, primary screen (AID 431); type: functional; settings: Homo sapiens
[6] = target: T3, Short transient receptor potential channel 4 (Mus musculus, UniProt Q9QUQ5); experiment: calcium entry via TRPC4 opening agents – cell-based, HEK293 TRPC4/mu-opioid, Fluo-4 calcium, dose response (AID 434937); type: functional
T3 sequence (Q9QUQ5 whole entry): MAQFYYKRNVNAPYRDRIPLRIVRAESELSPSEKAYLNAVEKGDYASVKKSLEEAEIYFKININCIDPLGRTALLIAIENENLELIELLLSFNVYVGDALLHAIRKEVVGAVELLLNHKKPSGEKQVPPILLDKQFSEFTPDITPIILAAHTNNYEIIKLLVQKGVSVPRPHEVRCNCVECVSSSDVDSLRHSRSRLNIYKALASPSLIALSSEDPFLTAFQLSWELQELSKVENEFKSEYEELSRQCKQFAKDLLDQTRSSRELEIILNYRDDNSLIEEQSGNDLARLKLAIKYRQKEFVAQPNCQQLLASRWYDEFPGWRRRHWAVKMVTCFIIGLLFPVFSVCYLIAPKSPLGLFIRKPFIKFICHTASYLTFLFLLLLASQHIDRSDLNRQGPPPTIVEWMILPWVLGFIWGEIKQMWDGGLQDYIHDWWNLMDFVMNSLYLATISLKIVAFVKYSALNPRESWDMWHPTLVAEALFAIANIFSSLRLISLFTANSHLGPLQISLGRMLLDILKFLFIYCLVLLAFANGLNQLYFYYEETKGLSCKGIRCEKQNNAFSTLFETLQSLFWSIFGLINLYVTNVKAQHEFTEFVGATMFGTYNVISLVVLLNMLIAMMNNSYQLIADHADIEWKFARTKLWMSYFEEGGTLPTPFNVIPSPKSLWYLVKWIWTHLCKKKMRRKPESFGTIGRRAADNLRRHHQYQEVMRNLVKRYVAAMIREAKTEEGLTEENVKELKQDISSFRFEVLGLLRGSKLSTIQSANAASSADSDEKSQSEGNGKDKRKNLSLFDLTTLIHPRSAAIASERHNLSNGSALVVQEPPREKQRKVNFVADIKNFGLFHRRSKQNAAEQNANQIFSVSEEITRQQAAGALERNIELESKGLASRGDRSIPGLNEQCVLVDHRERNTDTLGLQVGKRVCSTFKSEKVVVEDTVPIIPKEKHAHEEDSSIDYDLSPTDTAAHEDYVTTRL

[7] = target: Cytochrome P450 2C9 (Homo sapiens, UniProt P11712)
[8] = target: Cytochrome P450 3A4 (Homo sapiens, UniProt P08684);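 note: CYP3A4 tested as one member of a cytochrome P450 panel screen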
[9] = target: Prothrombin (Homo sapiens, UniProt P00734); experiment: Thrombin 1536 HTS Dose Response Confirmation. [Related pubchem assays: 1046 (Thrombin 1536 HTS; hits were confirmed in this assay)]; type: functional
[10] = target: Cytochrome P450 2C19 (Homo sapiens, UniProt P33261); experiment: Cytochrome panel assay with activity outcomes. Panel member name: p450-cyp2c19 Compounds with AC50 equal or less than 10 uM are considered active; type: functional; settings: read-out: AC50
[11] = Trypanosoma cruzi growth suppression in host cells – NIH3T3 host cells, beta-gal luminescence, confirmation (AID 2044); type: functional, cell-based;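 note: intracellular parasites grown in NIH/3T3 mouse fibroblasts as host cells; luminescent beta-galactosidase reporter signal from transgenic T. cruzi replicating inside host cells; inhibitors lower the luminescence signal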
[12] = NIH3T3 cell viability loss – ATP luminescence, mouse fibroblasts, counter-screen, dose response (AID 2010); type: functional, cell-based;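 note: cells exposed to compound for about 90 hours before reading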
[13] = target: T3, Short transient receptor potential channel 4; experiment: block of DAMGO-driven TRPC4 calcium entry – cell-based, HEK293 TRPC4/mu-opioid, Fluo-4 calcium, dose response (AID 434942); type: functional;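 note: potency of inhibitors blocking the TRPC4 calcium response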
[14] = reduction of Shn3 3'UTR-driven luciferase in osteoblasts – cell-based, Clone20 osteoblasts, firefly luciferase, cherry-picked, dose response (AID 624132); type: functional;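 note: firefly luciferase luminescence from reporter carrying the Shn3 3'UTR in osteoblasts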
[15] = loss of viability in HepG2 cells – cell-based, CellTiter-Glo, cherry-picked, cytotoxicity control for Shn3 inhibitor project, dose response (AID 624134); type: functional
[16] = OVCAR8 cell viability loss – plate reader, dry powder samples, PAX8 project, dose response (AID 743197); type: functional, cell-based; settings: OVCAR-8
[17] = target: Paired box protein Pax-8 (Homo sapiens, UniProt Q06710); experiment: PAX8 transcriptional activity inhibition in RMG-I – RMG-I cells, luciferase, cherry-pick, dose response (AID 687027); type: functional, cell-based;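 note: luciferase reporter driven by Pax8 target thyroperoxidase promoter measured by SteadyGlo luminescence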
[18] = OVCAR-3 cell viability loss – plate reader, dry powder samples, PAX8 inhibitor project, dose response (AID 743044); type: functional, cell-based
[19] = target: Genome polyprotein (dengue virus type 2, UniProt P29990); experiment: flavivirus cap methylation enzyme inhibition – biochemical, confirmation dose response, primary screen (AID 588689); type: functional
[20] = growth inhibition of yeast DHODH-expressing 3D7 parasites – SYBR Green, dry powder samples, dose response (AID 1159570); type: functional, cell-based;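 note: parasite growth measured after 72 hours of compound exposure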
[21] = P. falciparum Dd2 growth inhibitors, dose response, SYBR Green, cherry-picked samples (AID 1159567); type: functional, cell-based
[22] = growth inhibition of PfATP4-mutant resistant parasites – NITD609-resistant line, SYBR Green, dry powder, dose response (AID 1159571); type: functional, cell-based;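 note: parasites synchronized at ring stage by sorbitol before testing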
[23] = Dd2 malaria parasite growth inhibition potency – SYBR Green, dry powder samples, dose response (AID 1159566); type: functional, cell-based;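 note: potency for growth inhibition with lower SYBR green DNA signal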

Chain of Cytochrome P450 2C9 (P11712 whole entry): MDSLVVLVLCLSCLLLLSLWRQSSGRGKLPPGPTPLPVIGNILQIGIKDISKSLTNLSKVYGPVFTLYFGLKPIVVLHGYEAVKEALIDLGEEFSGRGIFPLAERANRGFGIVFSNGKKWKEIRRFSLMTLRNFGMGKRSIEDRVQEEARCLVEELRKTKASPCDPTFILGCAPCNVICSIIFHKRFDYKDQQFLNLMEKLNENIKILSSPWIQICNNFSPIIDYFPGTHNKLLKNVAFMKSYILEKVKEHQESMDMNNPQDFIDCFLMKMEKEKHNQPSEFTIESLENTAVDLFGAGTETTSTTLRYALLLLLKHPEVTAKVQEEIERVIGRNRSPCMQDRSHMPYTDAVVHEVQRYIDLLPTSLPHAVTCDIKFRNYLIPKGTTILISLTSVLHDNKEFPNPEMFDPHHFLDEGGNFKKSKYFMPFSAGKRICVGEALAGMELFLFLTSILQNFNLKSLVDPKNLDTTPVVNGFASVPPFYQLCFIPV
Chain of Cytochrome P450 2C19 (P33261 whole entry): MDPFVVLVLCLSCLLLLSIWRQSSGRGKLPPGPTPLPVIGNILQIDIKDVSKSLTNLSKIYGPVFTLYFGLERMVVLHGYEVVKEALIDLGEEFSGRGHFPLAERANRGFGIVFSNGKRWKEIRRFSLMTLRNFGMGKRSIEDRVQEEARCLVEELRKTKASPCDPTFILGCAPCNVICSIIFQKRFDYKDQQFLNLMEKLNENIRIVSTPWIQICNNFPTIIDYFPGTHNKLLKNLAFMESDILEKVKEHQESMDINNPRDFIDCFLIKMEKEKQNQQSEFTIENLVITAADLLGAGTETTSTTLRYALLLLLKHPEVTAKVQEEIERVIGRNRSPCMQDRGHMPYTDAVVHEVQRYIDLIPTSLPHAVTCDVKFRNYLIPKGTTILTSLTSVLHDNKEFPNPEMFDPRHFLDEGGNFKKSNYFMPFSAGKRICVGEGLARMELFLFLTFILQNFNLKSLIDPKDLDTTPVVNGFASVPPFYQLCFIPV
Chain of Cytochrome P450 3A4 (P08684 whole entry): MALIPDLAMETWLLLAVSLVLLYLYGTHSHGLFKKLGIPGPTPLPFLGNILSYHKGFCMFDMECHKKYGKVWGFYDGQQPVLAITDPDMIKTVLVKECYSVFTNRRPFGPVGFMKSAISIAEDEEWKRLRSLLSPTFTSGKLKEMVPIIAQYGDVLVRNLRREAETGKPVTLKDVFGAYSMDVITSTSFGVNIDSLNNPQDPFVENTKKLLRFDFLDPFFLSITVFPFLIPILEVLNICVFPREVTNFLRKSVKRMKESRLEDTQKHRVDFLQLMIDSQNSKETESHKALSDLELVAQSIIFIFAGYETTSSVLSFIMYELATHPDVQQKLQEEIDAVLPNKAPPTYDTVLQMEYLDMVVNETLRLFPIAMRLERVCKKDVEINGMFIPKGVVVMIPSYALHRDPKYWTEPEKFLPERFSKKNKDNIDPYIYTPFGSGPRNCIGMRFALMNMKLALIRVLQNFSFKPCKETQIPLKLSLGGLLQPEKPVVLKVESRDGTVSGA
Chain of Paired box protein Pax-8 (Q06710 whole entry): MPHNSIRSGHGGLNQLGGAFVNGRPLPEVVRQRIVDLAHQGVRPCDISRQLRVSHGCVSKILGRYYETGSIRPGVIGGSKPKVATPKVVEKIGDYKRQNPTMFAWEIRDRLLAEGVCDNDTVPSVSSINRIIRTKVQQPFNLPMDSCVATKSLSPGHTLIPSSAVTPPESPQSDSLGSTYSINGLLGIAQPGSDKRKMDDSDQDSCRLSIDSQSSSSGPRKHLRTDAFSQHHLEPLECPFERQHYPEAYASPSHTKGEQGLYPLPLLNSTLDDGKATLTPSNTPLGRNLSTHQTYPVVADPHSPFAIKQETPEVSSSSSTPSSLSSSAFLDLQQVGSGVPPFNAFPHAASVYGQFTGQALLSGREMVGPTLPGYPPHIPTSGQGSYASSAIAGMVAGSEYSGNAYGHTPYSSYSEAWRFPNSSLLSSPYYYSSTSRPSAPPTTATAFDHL
Chain of Genome polyprotein (P29990 2492-3391 limits assumed): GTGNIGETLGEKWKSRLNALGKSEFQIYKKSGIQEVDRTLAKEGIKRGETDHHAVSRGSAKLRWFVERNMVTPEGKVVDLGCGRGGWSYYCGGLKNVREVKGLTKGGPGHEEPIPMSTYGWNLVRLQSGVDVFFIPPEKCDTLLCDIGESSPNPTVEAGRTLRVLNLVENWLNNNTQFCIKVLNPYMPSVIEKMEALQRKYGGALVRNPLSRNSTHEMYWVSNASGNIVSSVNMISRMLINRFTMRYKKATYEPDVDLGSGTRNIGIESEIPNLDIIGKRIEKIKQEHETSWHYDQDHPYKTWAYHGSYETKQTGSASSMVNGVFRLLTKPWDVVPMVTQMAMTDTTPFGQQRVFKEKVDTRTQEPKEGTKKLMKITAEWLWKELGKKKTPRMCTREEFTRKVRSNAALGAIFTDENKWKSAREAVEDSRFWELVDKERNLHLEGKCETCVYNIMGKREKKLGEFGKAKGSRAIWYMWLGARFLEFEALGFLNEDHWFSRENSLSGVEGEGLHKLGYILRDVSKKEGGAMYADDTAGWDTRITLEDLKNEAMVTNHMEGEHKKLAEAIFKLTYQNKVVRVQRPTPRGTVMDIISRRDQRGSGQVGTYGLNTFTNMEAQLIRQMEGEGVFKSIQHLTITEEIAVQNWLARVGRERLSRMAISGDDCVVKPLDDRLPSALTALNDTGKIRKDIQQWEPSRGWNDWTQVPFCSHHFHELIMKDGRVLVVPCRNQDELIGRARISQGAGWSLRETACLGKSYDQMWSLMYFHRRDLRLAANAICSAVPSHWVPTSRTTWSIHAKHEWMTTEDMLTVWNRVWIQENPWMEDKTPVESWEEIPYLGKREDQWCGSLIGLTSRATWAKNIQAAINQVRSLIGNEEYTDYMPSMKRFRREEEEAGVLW

EC50 [6]: 1.33 µM (active)
SMILES: CCCN(CCC(=O)Nc1cc(OC)cc(OC)c1)CC1CC1

EC50 [6]: 1.68 µM (active)
SMILES: CCCc1c(O)nc(SCCN(CC)CC)nc1O

AC50 [7]: inconclusive
SMILES: CN(C)c1oc(-c2ccccc2)nc1C#N

AC50 [7]: inconclusive
SMILES: NS(=O)(=O)c1cc2c(cc1Cl)N[C@@H](CC1CCCC1)NS2(=O)=O

AC50 [7]: inconclusive | AC50 [8]: 15.8 µM (inconclusive)
SMILES: COc1ccc(-c2nc3cnc(N4CCNCC4)nc3n(Cc3ccc(F)cc3)c2=O)cc1

EC50 [6]: 3.35 µM (active)
SMILES: Cc1cc(Br)ccc1OCCn1ccnc1

IC50 [9]: > 50 µM (not active)
SMILES: Cc1ccc(S(=O)(=O)NC(=O)N2CCC(C)CC2)cc1

IC50 [9]: > 50 µM (not active)
SMILES: N/C(=N\S(=O)(=O)c1ccccc1)c1ccc([N+](=O)[O-])cc1

AC50 [7]: inconclusive | AC50 [10]: 0.282 µM (inconclusive)
SMILES: O=C(NCCc1cccs1)C1CC(c2c(Cl)cccc2Cl)=NO1 (configuration not stated)

IC50 [9]: 0.711 µM (active)
SMILES: O=C(c1cccs1)n1nc(-c2cccnc2)nc1NCc1ccco1

IC50 [1]: 4.28 µM (active) | IC50 [19]: 51.7 µM (active)
SMILES: CCOc1cc(/C=N/NC2=NC(=O)C(CC(=O)O)S2)ccc1OCc1ccccc1Cl (configuration not stated)

IC50 [1]: 7.02 µM (active)
SMILES: Cc1cc(C(=O)N/N=C/C=C/c2ccc(Br)cc2)[nH]n1

The remaining lines, values behind:

SMILES: Cc1ccc2nc(Cl)c(C3CC(c4cccs4)=NN3C(=O)CCCC(=O)O)cc2c1 (configuration not stated)
IC50 [1]: 11.1 µM (active)

SMILES: CN1CCC2(CC1)Nc1nc(SCc3ccc(Cl)cc3)nn1C1=C2CN(C)CC1
IC50 [2]: > 47.1 µM (inactive) | EC50 [3]: > 53 µM (inactive) | EC50 [4]: > 20 µM (not active) | EC50 [5]: > 20 µM (not active)

SMILES: CC(=O)Nc1nonc1-n1nnc(C(=O)NCc2ccccc2)c1C
EC50 [4]: > 20 µM (not active) | EC50 [5]: > 20 µM (not active)

SMILES: CC(C)N1CCC2(CC1)N=C(c1ccc3c(c1)OCO3)CC(c1cc(Cl)ccc1O)N2 (configuration not stated)
EC50 [4]: 4.25 µM (active) | EC50 [5]: 3.54 µM (active)

SMILES: CC(C)N1C(=O)CC2(CC[N+](C)(CCOC(=O)C(O)(c3ccccc3)c3ccccc3)CC2)C1=O (configuration not stated)
IC50 [1]: 6.22 µM (active)

SMILES: Cc1cc2ncn(S(=O)(=O)N3CCOCC3)c2cc1C
IC50 [9]: > 50 µM (not active)

SMILES: CCCC(=O)n1nc(-c2cccnc2)nc1N
IC50 [9]: 0.986 µM (active) | AC50 [10]: 31.6 µM (inconclusive)

SMILES: Cc1cc(OCCCn2ccnc2)cc(C)c1Cl
EC50 [11]: 0.852 µM (active) | EC50 [12]: > 60 µM (not active) | EC50 [6]: 5.31 µM (active)

SMILES: O=C(NCc1ccccc1)C1=C[C@H](c2ccc3c(c2)OCO3)C[C@H](OCc2ccc(CO)cc2)O1
EC50 [13]: 5.31 µM (active) | EC50 [6]: 4.73 µM (active)

SMILES: CCOC(=O)N(O)c1ccc(C=Cc2ccccc2)cc1
IC50 [1]: 6.05 µM (active)

SMILES: C[C@@H]1CCCCO[C@H](CN(C)Cc2ccccc2)[C@@H](C)CN([C@H](C)CO)C(=O)c2cc(NC(=O)c3ccccc3)ccc2O1
AC50 [14]: 31.2 µM (active) | AC50 [15]: > 70 µM (inactive)

SMILES: C[C@H]1CN([C@@H](C)CO)S(=O)(=O)c2ccc(C#Cc3ccncc3)cc2O[C@H]1CN(C)C(=O)C1CCCCC1
AC50 [16]: 52.3 µM (active) | AC50 [17]: 2.68 µM (active) | AC50 [18]: 12.9 µM (active)

SMILES: COc1ccc(NC(=O)N2CCC3(CC2)CN(C(=O)C2CCC2)[C@H](CO)c2c3c3ccc(OC)cc3n2C)cc1
AC50 [20]: 0.0417 µM (active) | AC50 [21]: 0.969 µM (active) | AC50 [22]: 0.0845 µM (active) | AC50 [23]: 0.0967 µM (active)

SMILES: C[C@@H]1CN([C@@H](C)CO)S(=O)(=O)c2ccc(C#CC3CCCC3)cc2O[C@H]1CN(C)C(=O)Cc1ccncc1
AC50 [20]: 2.98 µM (active) | AC50 [21]: 1.16 µM (active) | AC50 [22]: 1.72 µM (active) | AC50 [23]: 0.722 µM (active)
